# Reference: patent publication US10532065B2, “Bisphosphonic acid derivative and application for same” (NAGASAKI UNIVERSITY, priority 2014, dated 2020)
# “Also recorded” adds a separate entry of the source.
# What was measured:
# [1] = test system: farnesyl diphosphate synthase (geranylgeranylation of Rap1A); test: Rap1A geranylgeranylation inhibition in tumor cells (Western blotting); type: cell-based; conditions: non-geranylgeranylated Rap1A, 16 hr, various tumor cell lines (FIG. 9)
# Text: To verify this mechanism, whether the farnesyl diphosphate synthase is inhibited in the cell needs to be confirmed. If farnesyl diphosphate synthase is inhibited, intracellular concentration of geranylgeranyl diphosphate decreases, and geranylgeranylation of Rap1A small G protein is inhibited. The inhibitory effect thereof is clarified by quantifying the inhibition of geranylgeranylation of Rap1A. […] As the tumor cells, MOLT-3, PEER, C1R, J.RT3-T3.5, Raji, RAMOS-RA1, MOLT-4, HL60, U937, THP-1, SCC-3, P31/FUJ, K562, NOMO-1, YMB-1-E, MRK-nu-1, HMC-1-8, MCF-7, MDA-MB-231, T-47D, SK-BR-3, 786-0, VMRC-RCZ, UOK121, Caki-1, A-704, BxPC-3, KP4-1, KP4-2, KP4-3, MiaPaCa-2, TGBC24TKB, ACS, MG-63, LK-2, EJ-1 were used. […] Thereto was added 10 mM stock solution of compound 7 to a final concentration of 10 μM, 1 μM, 100 nM, 10 nM, 1 nM, 100 pM, 10 pM, 1 pM. These flasks were cultured at 37° C. under 5% CO2 atmosphere for 16 hr. Non-adherent cells were left unattended, and adherent cells were recovered using EDTA/trypsin solution. […] The supernatant was removed, and suspended in cell lysis solution (100 μl) composed of 1% NP-40, 0.1% SDS, 0.5% sodium deoxycholate. […]
# To quantitatively analyze the inhibitory efficiency thereof, the concentration of a compound that inhibits geranylgeranylation of Rap1A by half was calculated as EC50 value and studied by comparison. […]
# [2] = test system: γδ T cells in peripheral blood mononuclear cells of a healthy adult; conditions: healthy adult PBMC, 1 μM, IL-2, 14 days of culture
# Description: Mononuclear cells were obtained by the specific gravity centrifugation method from the peripheral blood of a healthy adult. The obtained mononuclear cells were suspended in Yssel medium at 1.8×10^6 cells/ml, and seeded by 1.5 ml in each well of a 24-well plate. Compound 7 was added to each well at a concentration of 1 μM, and cultured at 37° C. under 5% CO2 atmosphere. After one day of culture, IL-2 was added at a concentration of 100 IU/ml, and the cells were cultured in the presence of 100 IU/ml IL-2 thereafter up to day 6, and cultured in the presence of 30 IU/ml IL-2 from day 7. After 14 days of culture, the cells were recovered, and cell surface molecule was analyzed by flow cytometry using labeled anti-CD3 antibody and labeled anti-Vδ2 antibody. As a control, an antibody having the same isotype as anti-CD3 antibody and anti-Vδ2 antibody but irrelevant thereto was used. The ratio (%) of γδ T cells having the Vδ2 region in CD3 cells was determined.
compound,measurement,setting,value
"CC(C)(C)C(=O)OCOP(=O)(OCOC(=O)C(C)(C)C)C(CNc1nccs1)P(=O)(OCOC(=O)C(C)(C)C)OCOC(=O)C(C)(C)C [Compound 7, tetrakispivaloyloxymethyl 2-(thiazol-2-ylamino) ethylidene-1,1-bisphosphonate]",farnesyl diphosphate synthase inhibitory action in cells (in words),[1],"inhibits efficiently, in any tumor cells, farnesyl diphosphate synthase; also recorded: high farnesyl diphosphate synthase inhibitory action in lymphatic tumor cells and myeloidic tumor cells"
same,ratio (%) of γδ T cells having the Vδ2 region in CD3 cells,[2],99.8%
